Patent US12337037B2, “Taxol conjugate compounds, pharmaceutical compositions comprising the same, and methods for their use” (N1 Life, Inc, priority 2021, dated 2025)

How the values were obtained:
[1] = system: breast cancer MCF7/MBA-MD-231 cells; assay: CCK-8 cytotoxicity / anti-proliferation assay, MCF7/MBA-MD-231; type: cell-based; settings: all tested concentrations (500-4000 nM)
Protocol: (§1) Cytotoxicity Assay—CCK8 Cancer Cells
(§2) The CCK-8 assay was applied to study the cytotoxicity of the peptide drug conjugates and their inhibition of proliferation of cancer cells. First, 2˜10×10^3 cells (depending on the rate of growth of different cell lines) with 100 μL, DMEM media were seeded in normal culture medium into each well of a 96-well plate. The cells were then cultured overnight at 37° C. with 4˜5% CO2. Different doses (4000, 2000, 1000, 500 nM for Hep3B, Hep G2 and MCF7/MBA-MD-231; 1000, 333.3, 100.0, 33.33, 3.333, 1.000, 0.333 nM for MCF7/ADR, 22Rv1, CNE1, HCT116, DLD-1) of Taxol and peptide drugs were added. After 48˜72 hour incubation, CCK-8 solution was added to each well. The cells were then incubated at 37° C. for 4 hours. The optical density was measured at 450/650 nm using a multiscan spectrometer (PerkinElmer's EnSpire Multilabel Plate Reader). The optical density is linearly proportional to the number of living cells in the sample: […]

[2] = system: human pancreatic cancer (BXPC-3) cells; assay: Efficacy against pancreatic cancer; type: in vivo, mice; settings: BXPC-3 model; 9.6 mg/kg QD5 (days 0, 5, 10); vs vehicle
Protocol: Following the procedure described in Biological Example 5, mice were injected with human pancreatic cancer (BXPC-3) cells and treated with Compound 3 (9.6 mg/kg) QD5 (dosing on days 0, 5, and 10) to study the efficacy of Compound 3. […] FIG. 11 is a graph comparing the fluorescence area on Day 17 of the study of the mice administered vehicle and the mice administered Compound 3. FIG. 12 is a graph comparing the tumor weight of the mice administered vehicle and the mice administered Compound 3 on Day 17.

[3] = system: human gastric cancer (NUGC-4) cells; assay: Efficacy against gastric cancer; type: in vivo, mice; settings: NUGC-4 model; 9.6 mg/kg QD5 (days 0, 5, 10)
Protocol: The fluorescence area of the tumor was measured over the course of the study (FIG. 13). After approximately Day 15 in the mice administered PBS, the formation of bloody ascites blocked the fluorescence reading. […] FIG. 14 is a graph comparing the fluorescence area on Day 21 of the study of the mice administered vehicle and the mice administered Compound 3. FIG. 15 is a graph comparing the tumor weight of the mice administered vehicle and the mice administered Compound 3 on Day 21.

[4] = system: Hep G2 cells; assay: CCK-8 cytotoxicity / anti-proliferation assay, Hep G2; type: cell-based; settings: 2000 nM
Protocol: as §1, §2

CC(=O)N[C@@H](CSSCCCC(=O)OC(C(=O)O[C@H]1C[C@@]2(O)[C@@H](OC(=O)c3ccccc3)[C@@H]3[C@]4(OC(C)=O)CO[C@@H]4C[C@H](O)[C@@]3(C)C(=O)[C@H](OC(C)=O)C(=C1C)C2(C)C)[C@@H](NC(=O)c1ccccc1)c1ccccc1)C(=O)N[C@H](CCCNC(=N)N)C(=O)N[C@H](CCCNC(=N)N)C(=O)N[C@H](CCCNC(=N)N)C(=O)N[C@H](CCCNC(=N)N)C(=O)N[C@H](CCCNC(=N)N)C(=O)N[C@H](CCCNC(=N)N)C(=O)N[C@H](CCCNC(=N)N)C(=O)N[C@H](CCCNC(=N)N)C(N)=O (stereo partly drawn) [Compound 3, Ac-L-Cysteine (paclitaxel-4-mercaptobutanoate)-D-Arginine8-NH2]
cancer cell inhibition compared to Compound 5 (FIG. 1) [1]: substantially superior to cancer cell inhibition compared to Compound 5 at all tested concentrations | fluorescence area of the tumor over the course of the study (FIG. 10) [2]: fluorescence area increased in the vehicle-administered mice to a greater degree over the course of the study compared to the Compound 3-administered mice | fluorescence area of the tumor over the course of the study (FIG. 13) [3]: fluorescence decreased over the course of the study | anti-proliferation effect compared to Taxol and Compound 5 (FIG. 2B) [4]: greater than the anti-proliferation effect of Taxol and Compound 5
